Experimental data from PubChem BioAssay (NCI).
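Step 1: Grow cells in 96-well plates. Step 2: Expose to compound for 48 hours at 5 concentrations. Step 3: Interpolate endpoints linearly; if unreached, use highest concentration. TGI marks complete inhibition of growth.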

Assays:
Assay in all cases: NCI-60 cell line screen, 48 h
[1] = tested on: SK-OV-3 ovarian
[2] = tested on: DU-145 prostate
[3] = tested on: KM12 colon
[4] = tested on: 786-0 renal
[5] = tested on: MOLT-4 leukemia
[6] = tested on: UACC-257 melanoma
[7] = tested on: SF-268 CNS
[8] = tested on: M14 melanoma
[9] = tested on: HOP-62 NSCLC
[10] = tested on: A549 NSCLC
[11] = tested on: PC-3 prostate
[12] = tested on: RXF 393 renal
[13] = tested on: SK-MEL-28 melanoma
[14] = tested on: HCT-15 colon
[15] = tested on: NCI-H226 lung
[16] = tested on: SNB-19 CNS
[17] = tested on: U251 CNS
[18] = tested on: CAKI-1 renal
[19] = tested on: OVCAR-8 ovarian
[20] = tested on: RPMI-8226 leukemia
[21] = tested on: SN12C renal
[22] = tested on: SNB-75 CNS
[23] = tested on: HL-60(TB) leukemia
[24] = tested on: A498 renal
[25] = tested on: SF-295 CNS
[26] = tested on: UACC-62 melanoma
[27] = tested on: CCRF-CEM leukemia
[28] = tested on: NCI/ADR-RES ovarian
[29] = tested on: HT29 colon
[30] = tested on: UO-31 renal
[31] = tested on: HS 578T breast
[32] = tested on: OVCAR-3 ovarian
[33] = tested on: SW-620 colon
[34] = tested on: OVCAR-5 ovarian
[35] = tested on: SK-MEL-5 melanoma
[36] = tested on: NCI-H460 lung
[37] = tested on: ACHN renal
[38] = tested on: IGROV1 ovarian
[39] = tested on: NCI-H522 lung
[40] = tested on: MDA-MB-231 breast
[41] = tested on: MDA-MB-435
[42] = tested on: SK-MEL-2 melanoma
[43] = tested on: EKVX NSCLC
[44] = tested on: HCC-2998 colon
[45] = tested on: COLO 205 colon
[46] = tested on: MCF7 breast
[47] = tested on: T-47D breast
[48] = tested on: NCI-H23 lung
[49] = tested on: TK-10 renal
[50] = tested on: HCT-116 colon
[51] = tested on: SF-539 CNS
[52] = tested on: K-562 leukemia
[53] = tested on: OVCAR-4 ovarian
[54] = tested on: HOP-92 NSCLC
[55] = tested on: BT-549 breast

Measured: TGI

CSc1nc(-c2ccccc2)c(C#N)c(=O)[nH]1
> 100 µM: [1] | [2] | [3] | [4] | [5] | [6] | [7] | [8] | [9] | [10] | [11] | [12] | [13] | [14] | [15] | [16] | [17] | [18] | [19] | [20] | [21] | [22] | [23] | [24] | [25] | [26] | [27] | [28] | [29] | [30] | [31] | [32] | [33] | [34] | [35] | [36] | [37] | [38] | [39] | [40] | [41] | [42] | [43] | [44] | [45] | [46] | [47] | [48] | [49] | [50] | [51] | [52] | [53] | [54] | [55]
